# Experiment: method code SF-HPLC, from DOI: 10.1002/qsar.200300824
row,Compound,logP
1,O=c1oc2ccccc2c(C(CCO)=NO)c1Cl,0.22
2,COc1ccc(C2=NOC(c3cc(=O)oc4ccccc34)O2)cc1 (stereo not drawn),3.04
3,CC(=O)ON=C(N)c1cc(=O)oc2ccccc12,1
4,O=c1cc(C=NNc2ccccc2)c2ccccc2o1,3.63
5,O=c1oc2ccccc2c(C(=NO)Nc2ccccc2)c1Cl,2.58
6,O=c1oc2ccccc2c(C(=NO)NC2CCCCC2)c1Cl,2.78
7,Cc1ccc(NC(=NO)c2c(Cl)c(=O)oc3ccccc23)cc1,2.89

# The remaining lines, values ahead:
row,logP,Compound
1,2.98,COc1ccc(-c2nc(-c3cc(=O)oc4ccccc34)no2)cc1
2,2.16,O=c1cc(C2=NOS(=O)N2c2ccccc2)c2ccccc2o1 (stereo not drawn)
3,1.93,CC1NC(c2cc(=O)oc3ccccc23)=NO1 (stereo not drawn)
4,3.22,O=c1cc(-c2noc(-c3ccccc3)n2)c2ccccc2o1
5,3.07,COc1ccc(-c2noc(-c3cc(=O)oc4ccccc34)n2)cc1
6,2.45,O=c1cc(C2=NOCN2c2ccccc2)c2ccccc2o1
7,3.03,O=c1cc(-c2noc(=S)n2-c2ccccc2)c2ccccc2o1
8,1.98,O=c1cc(C2=NOCN2)c2ccccc2o1
9,2.12,Cc1nc(-c2cc(=O)oc3ccccc23)no1
10,1.95,O=c1cc(-c2ncon2)c2ccccc2o1
11,2.7,CC1ON=C(c2cc(=O)oc3ccccc23)N1c1ccccc1 (stereo not drawn)

# From the SangsterLogP compilation
